Assay results published in US12540131B2 (Merck Sharp & Dohme LLC, priority 2019, dated 2026).

molecular target: GST tagged truncated human mutant G2019S LRRK2 (Homo sapiens (Human), UniProt Q5S007, G2019S); test: LRRK2 Km ATP LanthaScreen Assay; format: biochemical; settings: G2019S LRRK2, 134 μM ATP (Km ATP), mean values
Protocol: General Experimental Information: • Unless otherwise noted, all reactions are magnetically stirred. Unless otherwise noted, when diethyl ether is used in the experiments described below, it is Fisher ACS certified material and is stabilized with BHT. Unless otherwise noted, “concentrated” and/or “solvent removed under reduced pressure” means evaporating the solvent from a solution or mixture using a rotary evaporator or vacuum pump. Unless otherwise noted, flash chromatography is carried out on a Teledyne Isco (Lincoln, NE), Analogix (Burlington, WI), or Biotage (Stockholm, SWE) automated chromatography system using a commercially available cartridge as the column. Columns may be purchased from Teledyne Isco, Analogix, Biotage, Varian (Palo Alto, CA), or Supelco (Bellefonte, PA) and are usually filled with silica gel as the stationary phase. Reverse phase prep-HPLC conditions, where used, can be found at the end of each experimental section. Aqueous solutions were concentrated on a Genevac (Ipswich, ENG) or by freeze-drying/lyophilization. Unless otherwise noted, all LRRK2 pIC50 data presented in tables refers to the LRRK2 G2019S Km ATP LanthaScreen™ assay (Life Technologies Corp., Carlsbad, CA) that is described in the Biological Assay section.
The pIC50 values reported herein were measured as follows.
Biological Assay: LRRK2 Km ATP LanthaScreen™ Assay
Compound potency against LRRK2 kinase activity was determined using LanthaScreen™ technology from Life Technologies Corporation (Carlsbad, CA) using a GST20 tagged truncated human mutant G2019S LRRK2 in the presence of the fluorescein-labeled peptide substrate LRRKtide® (LRRK2 phosphorylated ezrin/radixin/moesin (ERM)), also from Life Technologies. The data presented for the Km ATP LanthaScreen™ Assay represents mean IC50 values based on several test results and may have reasonable deviations depending on the specific conditions and reagents used. Km is the Michaelis constant of an enzyme and is defined as the concentration of native substrate (ATP for a kinase) which permits the enzyme to achieve half Vmax (Vmax=rate of reaction when the enzyme is saturated with substrate). IC50 (half-maximal inhibitory concentration) represents the concentration of inhibitor required to inhibit LRRK2 kinase activity by 50%. Assays were performed in the presence of 134 μM ATP (Km ATP). Upon completion, the assay was stopped, and phosphorylated substrate detected with a terbium (Tb)-labeled anti-pERM antibody (cat. no. PV4898). The compound dose response was prepared by diluting a 10 mM stock of compound to a maximum concentration of 9.99 μM in 100% DMSO, followed by custom fold serial dilution in DMSO nine times. 20 nL of each dilution was spotted via a Labcyte Echo onto a 384-well black-sided plate (Corning 3575) followed by 15 μl of a 1.25 nM enzyme solution in 1× assay buffer (50 mM Tris pH 8.5, 10 mM MgCl2, 0.01% Brij-35, 1 mM EGTA, 2 mM dithiothreitol, 0.05 mM sodium orthovanadate). Following a 15-minute incubation period at RT, the kinase reaction was started with the addition of 5 μl of 400 nM fluorescein-labeled LRRKtide® (LRRK2 phosphorylated ezrin/radixin/moesin (ERM)) peptide substrate and 134 μM ATP solution in 1× assay buffer. The reaction was allowed to progress at ambient temperature for 90 minutes. The reaction was then stopped by the addition of 20 μl of TR-FRET Dilution Buffer (Life Technologies, Carlsbad, CA) containing 2 nM Tb-labeled anti-phospho LRRKtide® (LRRK2 phosphorylated ezrin/radixin/moesin (ERM)) antibody and 10 mM EDTA (Life Technologies, Carlsbad, CA). After an incubation period of 1 h at RT, the plate was read on an EnVision® multimode plate reader (Perkin Elmer, Waltham, MA) with an excitation wavelength of 337 nm (Laser) and a reading emission at both 520 and 495 nm. Compound IC50 values were interpolated from nonlinear regression best-fits of the log of the final compound concentration, plotted as a function of the 520/495-nm emission ratio using activity base “Abase”). […]

GST tagged truncated human mutant G2019S LRRK2, sequence (Q5S007 970-2527 G2019S): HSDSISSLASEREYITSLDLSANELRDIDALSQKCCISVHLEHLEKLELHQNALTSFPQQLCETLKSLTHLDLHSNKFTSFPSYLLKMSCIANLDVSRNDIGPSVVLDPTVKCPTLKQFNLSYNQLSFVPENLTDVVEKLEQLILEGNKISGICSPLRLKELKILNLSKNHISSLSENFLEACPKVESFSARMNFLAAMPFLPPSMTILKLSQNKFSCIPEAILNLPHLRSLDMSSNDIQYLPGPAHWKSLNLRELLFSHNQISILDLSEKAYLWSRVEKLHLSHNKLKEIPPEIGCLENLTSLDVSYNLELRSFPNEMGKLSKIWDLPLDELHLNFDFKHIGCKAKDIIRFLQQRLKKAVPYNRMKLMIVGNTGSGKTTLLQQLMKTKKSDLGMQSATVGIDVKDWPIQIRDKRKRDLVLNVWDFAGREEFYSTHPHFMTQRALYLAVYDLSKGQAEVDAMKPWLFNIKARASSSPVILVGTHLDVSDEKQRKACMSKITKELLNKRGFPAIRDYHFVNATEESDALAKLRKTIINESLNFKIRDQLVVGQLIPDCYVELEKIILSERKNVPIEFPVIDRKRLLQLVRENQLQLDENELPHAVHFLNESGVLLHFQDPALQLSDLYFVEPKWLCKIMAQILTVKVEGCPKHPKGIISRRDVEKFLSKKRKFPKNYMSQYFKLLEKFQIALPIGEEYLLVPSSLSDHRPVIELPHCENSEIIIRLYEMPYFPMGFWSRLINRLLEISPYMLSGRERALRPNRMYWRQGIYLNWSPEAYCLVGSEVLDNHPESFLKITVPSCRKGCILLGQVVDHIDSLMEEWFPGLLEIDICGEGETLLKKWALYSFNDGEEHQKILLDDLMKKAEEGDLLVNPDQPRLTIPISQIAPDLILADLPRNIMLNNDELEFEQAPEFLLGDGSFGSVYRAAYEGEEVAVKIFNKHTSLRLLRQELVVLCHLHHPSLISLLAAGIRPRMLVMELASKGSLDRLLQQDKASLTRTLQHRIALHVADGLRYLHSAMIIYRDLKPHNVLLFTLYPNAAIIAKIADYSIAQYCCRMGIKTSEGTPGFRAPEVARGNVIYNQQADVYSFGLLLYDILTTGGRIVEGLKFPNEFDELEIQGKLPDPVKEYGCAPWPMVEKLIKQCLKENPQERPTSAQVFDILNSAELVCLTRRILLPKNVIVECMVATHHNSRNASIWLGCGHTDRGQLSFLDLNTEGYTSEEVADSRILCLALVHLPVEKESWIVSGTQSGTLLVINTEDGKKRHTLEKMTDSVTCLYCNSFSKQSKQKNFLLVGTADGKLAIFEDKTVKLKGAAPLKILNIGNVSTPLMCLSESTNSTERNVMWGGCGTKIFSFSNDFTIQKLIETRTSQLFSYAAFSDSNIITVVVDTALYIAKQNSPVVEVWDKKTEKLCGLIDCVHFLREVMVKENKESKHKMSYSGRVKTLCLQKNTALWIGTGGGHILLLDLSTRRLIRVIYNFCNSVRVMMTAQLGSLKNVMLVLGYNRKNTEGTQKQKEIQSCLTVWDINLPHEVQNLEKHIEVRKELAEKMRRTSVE

Compound | LRRK2 pIC50
Cn1nc(C2CC2)cc1Nc1ncc2cc(Cl)c(C3CCN([C@@H]4COC[C@@H]4O)CC3)cc2n1 (single isomer, unassigned) [Ex-1.23, (3S,4S) or (3R,4R) 4-(4-{6-chloro-2-[(3-cyclopropyl-1-methyl-1H-pyrazol-5-yl)amino]quinazolin-7-yl}piperidin-1-yl)oxolan-3-ol] | 9.00
Cn1nc(C(F)(F)F)cc1Nc1ncc2cc(Cl)c(C3CCN([C@@H]4COC[C@@H]4O)CC3)cc2n1 (single isomer, unassigned) [Ex-1.24, (3S,4S) or (3R,4R) 4-[4-(6-chloro-2-{[1-methyl-3-(trifluoromethyl)-1H-pyrazol-5-yl]amino}quinazolin-7-yl)piperidin-1-yl]oxolan-3-ol] | 8.58
Cc1cc(Nc2ncc3cc(Cl)c(C4CCN([C@]5(C)COC[C@@H]5O)CC4)cc3n2)n(C)n1 (single isomer, unassigned) [Ex-1.25, (3S,4S) or (3R,4R) 4-(4-{6-chloro-2-[(1,3-dimethyl-1H-pyrazol-5-yl)amino]quinazolin-7-yl}piperidin-1-yl)-4-methyloxolan-3-ol] | 8.99
[2H]C([2H])([2H])n1ncc(Nc2ncc3cc(Cl)c(C4CCN([C@]5(C)COC[C@@H]5O)CC4)cc3n2)c1C (single isomer, unassigned) [Ex-1.26, (3S,4S) or (3R,4R)-4-(4-(6-chloro-2-((5-methyl-1-(methyl-d3)-1H-pyrazol-4-yl)amino)quinazolin-7-yl)piperidin-1-yl)-4-methyltetrahydrofuran-3-ol] | >9.20
[2H]C([2H])([2H])n1ncc(Nc2ncc3cc(Cl)c(C4CCN([C@]5(C)COC[C@@H]5O)CC4)cc3n2)c1Cl (single isomer, unassigned) [Ex-1.27, (3S,4S) or (3R,4R)-4-(4-(6-chloro-2-((5-chloro-1-(methyl-d3)-1H-pyrazol-4-yl)amino)quinazolin-7-yl)piperidin-1-yl)-4-methyltetrahydrofuran-3-ol] | >9.20
Cc1cc(Nc2ncc3cc(Cl)c(C4CCN([C@]5(C)COC[C@@H]5O)CC4)cc3n2)n(C2CC2)n1 (single isomer, unassigned) [Ex-1.28, (3S,4S) or (3R,4R) 4-(4-{6-chloro-2-[(1-cyclopropyl-3-methyl-1H-pyrazol-5-yl)amino]quinazolin-7-yl}piperidin-1-yl)-4-methyloxolan-3-ol] | 9.12
CC(C)(O)Cn1ncc(Nc2ncc3cc(Cl)c([C@@H]4CCN(C5(C)COC5)C[C@H]4F)cc3n2)c1Cl (single isomer, unassigned) [Ex-2.1, (3S,4S) or (3R,4R) 1-(5-chloro-4-((6-chloro-7-(3-fluoro-1-(3-methyloxetan-3-yl)piperidin-4-yl)quinazolin-2-yl)amino)-1H-pyrazol-1-yl)-2-methylpropan-2-ol] | 8.79
Cc1cc2cnc(Nc3cnn(C4CC4)c3Cl)nc2cc1C1CCN(C2COCC2O)CC1 (single isomer, unassigned) [Ex-2.4, (3S,4S) or (3R,4R)-(4-(4-(2-((5-chloro-1-cyclopropyl-1H-pyrazol-4-yl)amino)-6-methylquinazolin-7-yl)piperidin-1-yl)tetrahydrofuran-3-ol] | >9.20
CC1(Cn2ncc(Nc3ncc4cc(Cl)c([C@@H]5CCN(C6COC6)C[C@H]5F)cc4n3)c2Cl)COC1 (single isomer, unassigned) [Ex-2.11, (3S,4S) or (3R,4R) 6-chloro-N-{5-chloro-1-[(3-methyloxetan-3-yl)methyl]-1H-pyrazol-4-yl}-7-[3-fluoro-1-(oxetan-3-yl)piperidin-4-yl]quinazolin-2-amine] | 9.10
CC1(Cn2ncc(Nc3ncc4cc(Cl)c([C@H]5CCN(C6COC6)C[C@@H]5F)cc4n3)c2Cl)COC1 (single isomer, unassigned) [Ex-2.12, (3S,4S) or (3R,4R) 6-chloro-N-{5-chloro-1-[(3-methyloxetan-3-yl)methyl]-1H-pyrazol-4-yl}-7-[3-fluoro-1-(oxetan-3-yl)piperidin-4-yl]quinazolin-2-amine] | >9.20

same assay, conditions: G2019S LRRK2, 134 μM ATP (Km ATP), mean values; read-out: LRRK2 pIC50 (converted)

Compound | IC50
Cc1c(Nc2ncc3cc(Cl)c(C4CCN(C5CCCC5(F)F)CC4)cc3n2)cnn1C1CC1 (single isomer, unassigned) [Ex-1.21, (S) or (R) 6-chloro-N-(1-cyclopropyl-5-methyl-1H-pyrazol-4-yl)-7-[1-(2,2-difluorocyclopentyl)piperidin-4-yl]quinazolin-2-amine] | 1.86 nM
Cc1c(Nc2ncc3cc(Cl)c(C4CCN(C5CCCC5(F)F)CC4)cc3n2)cnn1C1CC1 (single isomer, unassigned) [Ex-1.22, (S) or (R) 6-chloro-N-(1-cyclopropyl-5-methyl-1H-pyrazol-4-yl)-7-[1-(2,2-difluorocyclopentyl)piperidin-4-yl]quinazolin-2-amine] | 7.94 nM
CC(C)(O)Cn1ncc(Nc2ncc3cc(Cl)c([C@@H]4CCN(C5(C)COC5)C[C@H]4F)cc3n2)c1Cl (single isomer, unassigned) [Ex-2.2, (3S,4S) or (3R,4R) 1-(5-chloro-4-((6-chloro-7-(3-fluoro-1-(3-methyloxetan-3-yl)piperidin-4-yl)quinazolin-2-yl)amino)-1H-pyrazol-1-yl)-2-methylpropan-2-ol] | < 0.631 nM
CC1(N2CCC(n3cc(Nc4ncc5cc(Cl)c(C6CC67CC7)cc5n4)cn3)CC2)COC1 (single isomer, unassigned) [Ex-2.5, (S) or (R) 6-chloro-N-{1-[1-(3-methyloxetan-3-yl)piperidin-4-yl]-1H-pyrazol-4-yl}-7-(spiro[2.2]pentan-1-yl)quinazolin-2-amine] | 2.19 nM
CC1(N2CCC(n3cc(Nc4ncc5cc(Cl)c(C6CC67CC7)cc5n4)cn3)CC2)COC1 (single isomer, unassigned) [Ex-2.6, (S) or (R) 6-chloro-N-{1-[1-(3-methyloxetan-3-yl)piperidin-4-yl]-1H-pyrazol-4-yl}-7-(spiro[2.2]pentan-1-yl)quinazolin-2-amine] | < 0.631 nM
CC1(N2CC3(CC(n4cc(Nc5ncc6cc(Cl)c(C7CC78CC8)cc6n5)cn4)C3)C2)COC1 (single isomer, unassigned) [Ex-2.7, (S) or (R) 6-chloro-N-{1-[2-(3-methyloxetan-3-yl)-2-azaspiro[3.3]heptan-6-yl]-1H-pyrazol-4-yl}-7-(spiro[2.2]pentan-1-yl)quinazolin-2-amine] | 0.813 nM
CC1(N2CC3(CC(n4cc(Nc5ncc6cc(Cl)c(C7CC78CC8)cc6n5)cn4)C3)C2)COC1 (single isomer, unassigned) [Ex-2.8, (S) or (R) 6-chloro-N-{1-[2-(3-methyloxetan-3-yl)-2-azaspiro[3.3]heptan-6-yl]-1H-pyrazol-4-yl}-7-(spiro[2.2]pentan-1-yl)quinazolin-2-amine] | 1.26 nM
CC1(N2CCC(n3ncc(Nc4ncc5cc(Cl)c(C6CC67CCC7)cc5n4)c3Cl)CC2)COC1 (single isomer, unassigned) [Ex-2.9, (S) or (R) 6-chloro-N-{5-chloro-1-[1-(3-methyloxetan-3-yl)piperidin-4-yl]-1H-pyrazol-4-yl}-7-(spiro[2.3]hexan-1-yl)quinazolin-2-amine] | 36.3 nM
